Columns and labels:
Glucocorticoid receptor = molecular target: T1, Glucocorticoid receptor (Homo sapiens, UniProt P04150); conditions: hela s3; also: in other assays of this panel Not Active means under 50% inhibition at 10 µM
T1 sequence (P04150 whole entry): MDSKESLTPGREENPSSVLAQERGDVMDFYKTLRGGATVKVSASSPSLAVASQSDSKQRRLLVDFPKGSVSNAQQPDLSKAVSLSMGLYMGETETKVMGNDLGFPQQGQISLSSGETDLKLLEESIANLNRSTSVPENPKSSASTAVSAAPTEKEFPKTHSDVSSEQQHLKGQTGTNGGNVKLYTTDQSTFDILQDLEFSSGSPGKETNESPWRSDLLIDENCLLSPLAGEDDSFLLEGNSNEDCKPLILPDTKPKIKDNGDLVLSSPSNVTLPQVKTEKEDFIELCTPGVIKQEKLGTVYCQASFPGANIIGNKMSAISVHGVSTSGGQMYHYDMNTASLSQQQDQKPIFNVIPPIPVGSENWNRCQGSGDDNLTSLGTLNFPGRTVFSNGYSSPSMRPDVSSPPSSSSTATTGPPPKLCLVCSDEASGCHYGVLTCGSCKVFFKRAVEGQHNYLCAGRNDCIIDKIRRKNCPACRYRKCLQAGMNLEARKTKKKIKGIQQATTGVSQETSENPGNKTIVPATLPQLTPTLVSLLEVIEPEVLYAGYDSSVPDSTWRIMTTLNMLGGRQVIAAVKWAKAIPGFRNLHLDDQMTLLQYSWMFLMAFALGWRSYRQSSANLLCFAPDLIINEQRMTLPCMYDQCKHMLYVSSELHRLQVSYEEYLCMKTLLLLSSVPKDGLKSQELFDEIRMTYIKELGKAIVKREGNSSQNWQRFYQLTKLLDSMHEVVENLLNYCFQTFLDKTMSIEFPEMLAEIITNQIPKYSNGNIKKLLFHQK

[1] = DRUGMATRIX: Atrial Natriuretic Factor (ANF) radioligand binding (ligand: [125I] ANF (rat)); type: cell membranes, Cavia porcellus, Dunkin-Hartley, Adrenal gland, Membrane; conditions: Not Active = under 50% inhibition at 10 µM
Cytochrome P450 2C19 = Cytochrome P450 2C19 (Homo sapiens, UniProt P33261); conditions: bti-tn-5b1-4; also: in other assays of this panel Not Active means under 50% inhibition at 10 µM
[2] = DRUGMATRIX: Leukotriene, BLT (LTB4) radioligand binding (ligand: [3H]LTB4); type: cell membranes, Membrane; conditions: u-937, Not Active = under 50% inhibition at 10 µM
[3] = molecular target: T2, Alpha-1B adrenergic receptor (Rattus norvegicus, UniProt P15823); experiment: DRUGMATRIX: Alpha-1B adrenergic receptor radioligand binding (ligand: prazosin); type: cell membranes, Wistar, Liver, Membrane; conditions: Not Active = under 50% inhibition at 10 µM
T2 sequence (P15823 whole entry): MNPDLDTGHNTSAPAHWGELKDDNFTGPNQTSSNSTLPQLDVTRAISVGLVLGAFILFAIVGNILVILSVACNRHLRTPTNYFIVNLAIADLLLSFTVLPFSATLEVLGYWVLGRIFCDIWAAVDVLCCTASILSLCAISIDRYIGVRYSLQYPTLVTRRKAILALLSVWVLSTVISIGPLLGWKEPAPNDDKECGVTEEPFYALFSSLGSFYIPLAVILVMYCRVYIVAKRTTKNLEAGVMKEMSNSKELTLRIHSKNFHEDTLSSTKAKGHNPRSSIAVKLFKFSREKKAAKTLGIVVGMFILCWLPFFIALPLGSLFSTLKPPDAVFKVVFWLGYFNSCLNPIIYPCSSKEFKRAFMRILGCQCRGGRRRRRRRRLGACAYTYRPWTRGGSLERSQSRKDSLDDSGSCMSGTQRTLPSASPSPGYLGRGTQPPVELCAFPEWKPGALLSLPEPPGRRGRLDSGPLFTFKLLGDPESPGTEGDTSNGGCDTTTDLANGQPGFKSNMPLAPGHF

[4] = DRUGMATRIX: Nicotinic Acetylcholine radioligand binding (ligand: [125I] Epibatidine); type: cell membranes, Membrane; conditions: imr-32; Not Active = under 50% inhibition at 10 µM
[5] = DRUGMATRIX: Glutamate, AMPA radioligand binding (ligand: [3H] AMPA); type: cell membranes, Rattus norvegicus, Wistar, Cerebral cortex, Membrane; conditions: Not Active = under 50% inhibition at 10 µM
[6] = DRUGMATRIX: Interleukin IL-1 radioligand binding (ligand: [125I] interleukin 1beta); type: cell membranes, Membrane; conditions: nih3t3; Not Active = under 50% inhibition at 10 µM
[7] = molecular target: Beta-1 adrenergic receptor (Homo sapiens, UniProt P08588); experiment: DRUGMATRIX: Adrenergic beta1 radioligand binding (ligand: [125I] Cyanopindolol); type: cell membranes, CHO-K1, Membrane; conditions: cho-k1; Not Active = under 50% inhibition at 10 µM
Chain of Beta-1 adrenergic receptor (P08588 whole entry): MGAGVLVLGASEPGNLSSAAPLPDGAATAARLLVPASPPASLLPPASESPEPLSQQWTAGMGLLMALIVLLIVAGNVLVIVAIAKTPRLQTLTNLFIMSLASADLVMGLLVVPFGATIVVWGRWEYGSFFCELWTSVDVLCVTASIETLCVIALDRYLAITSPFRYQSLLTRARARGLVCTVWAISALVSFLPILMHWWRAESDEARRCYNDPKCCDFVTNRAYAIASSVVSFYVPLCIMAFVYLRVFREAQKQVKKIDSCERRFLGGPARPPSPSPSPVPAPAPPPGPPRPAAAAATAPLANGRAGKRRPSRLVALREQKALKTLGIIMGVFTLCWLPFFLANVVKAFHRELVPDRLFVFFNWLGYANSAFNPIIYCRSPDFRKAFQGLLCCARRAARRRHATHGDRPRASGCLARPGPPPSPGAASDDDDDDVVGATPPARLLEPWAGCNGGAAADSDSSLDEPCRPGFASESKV

Chain of Cytochrome P450 2C19 (P33261 whole entry): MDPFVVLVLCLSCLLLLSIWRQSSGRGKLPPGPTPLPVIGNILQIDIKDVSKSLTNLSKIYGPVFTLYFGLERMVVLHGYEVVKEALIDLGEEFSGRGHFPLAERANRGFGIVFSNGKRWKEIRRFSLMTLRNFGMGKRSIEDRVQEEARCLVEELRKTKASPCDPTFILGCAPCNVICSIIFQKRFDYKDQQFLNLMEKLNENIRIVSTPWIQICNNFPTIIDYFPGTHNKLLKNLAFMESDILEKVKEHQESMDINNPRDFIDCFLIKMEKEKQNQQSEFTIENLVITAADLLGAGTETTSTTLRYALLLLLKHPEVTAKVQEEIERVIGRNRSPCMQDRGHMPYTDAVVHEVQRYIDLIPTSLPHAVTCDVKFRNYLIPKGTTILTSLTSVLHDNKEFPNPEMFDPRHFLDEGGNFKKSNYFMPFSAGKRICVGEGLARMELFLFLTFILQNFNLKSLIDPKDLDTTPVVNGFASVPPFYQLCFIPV

| SMILES | IC50 (Glucocorticoid receptor) | IC50 [1] | Ki [1] | IC50 (Cytochrome P450 2C19) | Ki (Cytochrome P450 2C19) | IC50 [2] | Ki [2] | IC50 [3] | IC50 [4] | Ki [4] | IC50 [5] | Ki [5] | IC50 [6] | Ki [6] | IC50 [7] | IC50 ([2]; read-out: IC50) [nM] | Ki ([2]; read-out: Ki) [nM] |
| --- | --- | --- | --- | --- | --- | --- | --- | --- | --- | --- | --- | --- | --- | --- | --- | --- | --- |
| Clc1ccc(COC(Cn2ccnc2)c2ccc(Cl)cc2Cl)c(Cl)c1 (stereo not given) [MICONAZOLE] | Not Active |  |  |  |  |  |  |  |  |  |  |  |  |  |  |  |  |
| CC1CCC(NC(=O)N(CCCl)N=O)CC1 (stereo not given) [SEMUSTINE] | Not Active | Not Active | Not Active | Not Active | Not Active | Not Active | Not Active | Not Active | Not Active | Not Active | Not Active | Not Active | Not Active | Not Active | Not Active |  |  |
| O=C1C[C@@H]2OCC=C3CN4CC[C@]56c7ccccc7N1[C@H]5[C@H]2[C@H]3C[C@H]46 [STRYCHNINE] |  | Not Active | Not Active | Not Active | Not Active | Not Active | Not Active | Not Active | Not Active | Not Active | Not Active | Not Active | Not Active | Not Active |  |  |  |
| C[S+]([O-])c1ccc(-c2nc(-c3ccncc3)c(-c3ccc(F)cc3)[nH]2)cc1 (stereo not given) [SB-203580] | Not Active |  |  |  |  |  |  |  |  |  |  |  |  |  | Not Active |  |  |
| CC(=N)S [THIOACETAMIDE] |  | Not Active | Not Active | Not Active | Not Active | Not Active | Not Active | Not Active | Not Active | Not Active | Not Active | Not Active | Not Active | Not Active | Not Active |  |  |
| COC(=O)[C@H]1[C@H]2C[C@@H]3c4[nH]c5cc(OC)ccc5c4CCN3C[C@H]2C[C@@H](OC(=O)c2cc(OC)c(OC)c(OC)c2)[C@@H]1OC [RESERPINE] | Not Active | Not Active | Not Active | Not Active | Not Active | Not Active | Not Active | Not Active | Not Active | Not Active | Not Active | Not Active | Not Active | Not Active | Not Active |  |  |
| O=c1[nH]c(=O)n(C2CCCO2)cc1F (stereo not given) [TEGAFUR] |  | Not Active | Not Active | Not Active | Not Active | Not Active | Not Active | Not Active | Not Active | Not Active | Not Active | Not Active | Not Active | Not Active | Not Active |  |  |
| C[N+](C)(C)CCOC(=O)CCC(=O)OCC[N+](C)(C)C.[Cl-].[Cl-] [SUCCINYLCHOLINE CHLORIDE] | Not Active | Not Active | Not Active |  |  | Not Active | Not Active | Not Active | Not Active | Not Active | Not Active | Not Active | Not Active | Not Active | Not Active |  |  |
| CCCCC(=O)N(Cc1ccc(-c2ccccc2-c2nnn[nH]2)cc1)[C@H](C(=O)O)C(C)C | Not Active | Not Active | Not Active | Not Active | Not Active | Not Active | Not Active | Not Active | Not Active | Not Active | Not Active | Not Active | Not Active | Not Active | Not Active |  |  |
| CN1CCN(C2=Nc3cc(Cl)ccc3Nc3ccccc32)CC1 [CLOZAPINE] | Not Active |  |  | Not Active | Not Active |  |  |  |  |  |  |  |  |  | Not Active |  |  |
| Oc1ccc2c3c1O[C@H]1[C@@H](O)CC[C@@]4(O)[C@@H](C2)N(CC2CCC2)CC[C@]314 [NALBUPHINE] | Not Active |  |  |  |  |  |  |  |  |  |  |  |  |  | Not Active |  |  |
| CN(C)C(=O)C(CCN1CCC(O)(c2ccc(Cl)cc2)CC1)(c1ccccc1)c1ccccc1 [LOPERAMIDE] | Not Active |  |  | Not Active | Not Active |  |  |  |  |  |  |  |  |  |  |  |  |
| O=C(O)c1ccccc1O [SALICYLIC ACID] |  | Not Active | Not Active | Not Active | Not Active | Not Active | Not Active | Not Active | Not Active | Not Active | Not Active | Not Active | Not Active | Not Active |  |  |  |
| Nc1ccc(S(=O)(=O)NC(=O)c2ccccc2)cc1 [SULFABENZAMIDE] | Not Active | Not Active | Not Active | Not Active | Not Active | Not Active | Not Active | Not Active | Not Active | Not Active | Not Active | Not Active | Not Active | Not Active | Not Active |  |  |
| C[C@@](Cc1ccc(O)c(O)c1)(NN)C(=O)O.O [CARBIDOPA] |  | Not Active | Not Active | Not Active | Not Active | Not Active | Not Active | Not Active | Not Active | Not Active | Not Active | Not Active | Not Active | Not Active | Not Active |  |  |
| CCCCCCCCNC(C)C(O)c1ccc(SC(C)C)cc1 (stereo not given) [SULOCTIDIL] | Not Active |  |  | Not Active | Not Active |  |  | Not Active |  |  | Not Active | Not Active |  |  |  | 1440 | 366 |
| CN1CCN(CCCN2c3ccccc3Sc3ccc(C(F)(F)F)cc32)CC1 [TRIFLUOPERAZINE] | Not Active | Not Active | Not Active |  |  | Not Active | Not Active | Not Active | Not Active | Not Active | Not Active | Not Active | Not Active | Not Active | Not Active |  |  |
| C[C@]12C=CC(=O)C=C1CC[C@@H]1[C@@H]2C(=O)C[C@@]2(C)[C@H]1CC[C@]2(O)C(=O)CO [PREDNISONE] |  | Not Active | Not Active |  |  | Not Active | Not Active | Not Active | Not Active | Not Active | Not Active | Not Active | Not Active | Not Active | Not Active |  |  |
| OCCOCCN1CCN(C2=Nc3ccccc3Sc3ccccc32)CC1 [QUETIAPINE] |  |  |  | Not Active | Not Active |  |  |  |  |  |  |  |  |  | Not Active |  |  |
| CC(C)NC[C@H](O)COc1cccc2ccccc12 [LEVOPROPRANOLOL] |  |  |  | Not Active | Not Active |  |  |  |  |  |  |  |  |  |  |  |  |
| CC(C)NC[C@@H](O)COc1cccc2ccccc12 [DEXPROPRANOLOL] |  |  |  | Not Active | Not Active |  |  |  |  |  |  |  |  |  |  |  |  |
| Cc1ccc(C(=O)c2ccc(CC(=O)O)n2C)cc1 [TOLMETIN] |  | Not Active | Not Active | Not Active | Not Active | Not Active | Not Active | Not Active | Not Active | Not Active | Not Active | Not Active | Not Active | Not Active | Not Active |  |  |
| CN1[C@@H]2CC[C@H]1C[C@@H](OC(c1ccccc1)c1ccccc1)C2 [BENZTROPINE] | Not Active |  |  | Not Active | Not Active |  |  |  |  |  |  |  |  |  |  |  |  |
